For one experiment, the system named is Wistar-Kyoto (WKY) rats. The experiment in a line: Cued fear conditioning / extinction training, freezing behavior in WKY rats. In kind it is in vivo, rat. To be noted: for Freezing behavior, direction of change vs. vehicle: WKY rats, across days 1 and 3. From the text:
Inbred Wistar-Kyoto (WKY) rats have been used as models of several behavioral deficits, such as stress vulnerability and sleep disturbance.
Fear memories are crucial in psychiatric conditions such as PTSD. Pavlovian fear conditioning (FC) test is a widely-used behavioral assay in rodents for measurement of aversive learning and memory through learned associations between aversive stimulus (a mild electric shock) and a specific cue (e.g., a tone; cued conditioning) or a context in which electric shock had occurred (contextual conditioning). Once the association is established, the conditioned stimulus (CS, i.e. tone or context) can induce fear response in a similar manner to unconditioned stimulus (US, i.e. electric shock). However, if CS repeatedly presents without combination of US, extinction occurs in normal animals. Fear extinction is usually regarded as a new inhibitory learning after repeated or prolonged CS presentations without the US, which causes a gradual decrease in the magnitude and/or frequency of the conditioned response (i.e. freezing response in FC test). Deficits in such inhibitory learning can be regarded as a hallmark of clinical PTSD.
Young adult (about 7 weeks of age), male WKY and Wistar rats purchased from Charles River Laboratory were used in this study. Upon receipt, animals were group-housed (2 per cage) and acclimated for at least 7 days. All rats were examined, handled, and weighed prior to initiation of the study to assure adequate health and suitability. During the course of the study, 12/12 light/dark cycles were maintained. The room temperature was maintained between 20 and 23° C. with a relative humidity maintained around 50%. Rats were randomly assigned to each treatment group. All testing was conducted during the animals' light cycle.
When combined with DSC, the combinations were given in a cocktail 30 minute prior to extinction test • D-CPP-ene (5 mg/kg) was be dissolved in acidified saline and administered s.c 30 min prior to extinction test at a dose volume of 2 ml/kg • Lurasidone (Lur, 0.2 mg/kg was dissolved in saline and administered IP 30 min prior to test at a dose volume of 1 ml/kg • Quetiapine (QTP, 10 mg/kg) was dissolved in acidified saline and administered s.c 30 min prior to test at a dose volume of 1 ml/kg
The experiment was conducted in the fear conditioning system manufactured by Coulbourn Instruments (PA, USA). Animal's body movements are captured with a video system and the FreezeFrame software, and freezing is analyzed automatically by the FreezeView software (Coulbourn Instruments, PA, USA).
Fear Conditioning Training: Animals were exposed to 5 CS-US pairings of a 10 sec tone (70 dB conditioned stimulus/CS) co-terminating with a brief electric shock (0.5 mA for 1.0 sec unconditioned stimulus/US). The 5 CS-US pairings are separated by a 60 sec interval with the first CS at 120 s. The rats stage in boxes for one minute after the last shock before being moved out.
Extinction training: Extinction training was conducted twice at 24 and 72 hr post FC training. A cued FC extinction paradigm was applied. The extinction training was conducted in the “cylinder”, a changed context which is different from the boxes of FC training. The extinction training lasted 32-40 min, including 8-10 identical bins. Each bin includes a 2 min tone period followed by a 2 min no-tone period (inter-trial interval, ITI).
Percent freezing during bins 7-8 of extinction trainings (24 hr and 72 hr) was used to evaluate effectiveness of treatment. Data were analyzed by […] analyses of variance (ANOVA), with treatment/group and extinction stage (cues or bins) set as factors. Fisher LSD method was used in Post hoc comparisons if applicable.

A further experiment relates to mice. Put plainly: Marble burying test. In kind it is in vivo. The following applies: for Effects on marble burying relative to racemic mirtazapine: Example 4, FIG. 2.

As for `O=C1[C@@H]2[C@H]3CC[C@H](C3)[C@@H]2C(=O)N1C[C@@H]1CCCC[C@H]1CN1CCN(c2nsc3ccccc23)CC1` [Lurasidone], the “Percentage WKY animals showing freezing behavior >85% of the time in response to cue stimuli across day 1 and 3 following fear conditioning, Mean” value with Wistar-Kyoto (WKY) rats (lurasidone 0.2 mg/kg IP 30 min prior to test) came out at 0.531.
For the compound `Fc1ccc([C@@H]2CCNC[C@H]2COc2ccc3c(c2)OCO3)cc1` [Paroxetine], the “Number of marbles buried compared to vehicle” value (“Number … compared to vehicle” below) with mice (Example 3, paroxetine 5 mg/kg IP 30 min prior to test) is listed as “significantly reduced the number of marbles buried”; in the experiment on mice (Example 4, paroxetine 5 mg/kg IP) it was “significantly reduced the number of marbles buried”.
With `CN1CCN2c3ncccc3Cc3ccccc3[C@H]2C1` [S-mirtazapine, S-(+)-mirtazapine], the “Effects on marble burying relative to racemic mirtazapine” value in the experiment on mice was “significantly more robust”. In addition, in the experiment with mice (Example 4, S-mirtazapine 1, 2.5, 5, 10 mg/kg IP), the “Number … compared to vehicle” value is reported as “significantly reduced the number of marbles buried”. The “Marble burying in the absence and presence of DCS” value in the experiment with mice (Example 4, S-mirtazapine with or without DCS) is reported as “floor level effects”.
For the compound `CN1CCN2c3ncccc3Cc3ccccc3C2C1` (racemic) [Mirtazapine], the “Number … compared to vehicle” value in the experiment with mice (Example 3, mirtazapine 5.5 mg/kg IP 30 min prior to test) is on record as “significantly reduced the number of marbles buried”; with mice (Example 4, mirtazapine 1, 2.5, 5 and 10 mg/kg IP) it was “significantly reduced the number of marbles buried”.
As for `O=C(O)[C@H]1CN(C/C=C/P(=O)(O)O)CCN1` [DCPPene, D-(E)-4-(3-phosphonoprop-2-enyl)piperazine-2-carboxylic acid], the “Percentage WKY animals showing freezing behavior >85% of the time in response to cue stimuli across day 1 and 3 following fear conditioning, Mean” value with Wistar-Kyoto (WKY) rats (D-CPP-ene 5 mg/kg s.c. 30 min prior to extinction test) turned out to be 0.625. Further, the “Freezing behavior, direction of change vs. vehicle” value with Wistar-Kyoto (WKY) rats (D-CPP-ene 5 mg/kg s.c.) is “Increase”; with Wistar-Kyoto (WKY) rats (D-CPP-ene 5 mg/kg s.c., listed as D-CPPene), “tended to increase freezing behavior”.
On to `CN1CCN2c3ncccc3Cc3ccccc3[C@@H]2C1` [R-mirtazapine, R-(−)-mirtazapine], for which, in the experiment with mice, the “Effects on marble burying relative to racemic mirtazapine” value is recorded as “less robust”. Moreover, the “Number … compared to vehicle” value was “significantly reduced the number of marbles buried” in the experiment with mice (Example 4, R-mirtazapine 10 mg/kg IP); “did not affect this measure” with mice (Example 4, R-mirtazapine 1, 2.5 and 5 mg/kg IP). The “Relative effects of R- and S-isomers of mirtazapine on marble burying (FIG. 2 legend)” value in the experiment on mice (R- vs S-isomer) is given as “greater effects”.
As to `CN[C@H]1CC[C@@H](c2ccc(Cl)c(Cl)c2)c2ccccc21` [Sertraline], the “Percentage WKY animals showing freezing behavior >85% of the time in response to cue stimuli across day 1 and 3 following fear conditioning, Mean” value in the experiment on Wistar-Kyoto (WKY) rats (sertraline 20 mg/kg IP 30 min prior to test) came out at 0.156. The “Freezing behavior, direction of change vs. vehicle” value in the experiment on Wistar-Kyoto (WKY) rats (sertraline 20 mg/kg IP) is on record as “Decrease”; in the experiment on Wistar-Kyoto (WKY) rats (sertraline 20 mg/kg IP, listed as sertraline), “significant reduction in freezing behavior”.
Regarding `OCCOCCN1CCN(C2=Nc3ccccc3Sc3ccccc32)CC1` [QTP, Quetiapine], the “Percentage WKY animals showing freezing behavior >85% of the time in response to cue stimuli across day 1 and 3 following fear conditioning, Mean” value in the experiment with Wistar-Kyoto (WKY) rats (quetiapine 10 mg/kg s.c. 30 min prior to test) came to 0.625. Moreover, the “Freezing behavior, direction of change vs. vehicle” value in the experiment on Wistar-Kyoto (WKY) rats (quetiapine 10 mg/kg s.c.) is reported as “Increase”; in the experiment on Wistar-Kyoto (WKY) rats (quetiapine 10 mg/kg s.c., listed as quetiapine) it was “tended to increase freezing behavior”.

These data come from patent US11969431B2, “Formulations for treatment of post-traumatic stress disorder” (Glytech LLC, priority 2017, dated 2024).
